The values that follow are results of earlier work, collected in publication PMC8654284 (Science Advances, 2021).

Like-named read-outs stand apart in the source and are kept apart here.

Data set [1] has as its system NK1R.
For data set [2], the system named is NK1R. As to conditions: said to explain the insurmountable antagonism only in part.
Data set [3] has as its system NK1R. To be noted: clinically used NK1R antagonists.
Data set [4] deals with NK1R. As to conditions: NKA and NKB compared to SP.
Data set [5] deals with NK1R E172K. As to conditions: NK1R E172 mutated to lysine as found in NK3R.
Setting [6] is: inhibition of receptor activation by SP.

Consider `COc1ccccc1CN[C@H]1CCCN[C@H]1c1ccccc1` [CP-99,994], for which the mode of antagonism result in data set [1] (compared to aprepitant and netupitant) is recorded as “tight-binding, but surmountable”.

Consider `C[C@@H](O[C@H]1OCCN(Cc2n[nH]c(=O)[nH]2)[C@H]1c1ccc(F)cc1)c1cc(C(F)(F)F)cc(C(F)(F)F)c1` [aprepitant], for which the mode of antagonism result in data set [1] (setting [6]) is “pseudo-irreversible antagonists”. For the same molecule, in data set [2], the dissociation kinetics result is given as “slower dissociation kinetics”. In data set [3], the “in vivo efficacy (duration)” value is reported as “markedly prolonged in vivo efficacy”.

On to `Cc1ccccc1-c1cc(N2CCN(C)CC2)ncc1N(C)C(=O)C(C)(C)c1cc(C(F)(F)F)cc(C(F)(F)F)c1` [netupitant], for which the mode of antagonism entry in data set [1] (setting [6]) is reported as “pseudo-irreversible antagonists”. For the same molecule, in data set [2], the dissociation kinetics result is given as “slower dissociation kinetics”. Besides, the “in vivo efficacy (duration)” value in data set [3] is listed as “markedly prolonged in vivo efficacy”.

neurokinin A [NKA]: in data set [4], the “affinity for NK1R” value is on record as “lower affinity compared to SP”.

Regarding neurokinin B [NKB], the “affinity for NK1R” value in data set [4] is on record as “lower affinity compared to SP”. Besides, in data set [5], the “affinity of NKB at E172K mutant” value is given as “increases affinity”.
